Experimental data reported in doi:10.1101/2023.04.18.537371v1 (bioRxiv, 2023).
Values belong to the substance of their own block, whether it stands above or below them. Ends that are not written are not given here.

Assays:
[1] = Plasma and brain levels in male CD-1 mice after a single IP dose; assay type: in vivo, CD-1 mouse; conditions: for Tissue Homogenate Conc / Plasma Conc: male CD-1 mice, IP 10 mg/kg single
[2] = target: TLR2; conditions: read-out: KD for binding to TLR2; ref 1 (Li et al); cited from earlier work
[3] = male, CD-1, mouse, brain homogenate, ip, 10 mg/kg
[4] = male, CD-1, mouse, brain, ip, 10 mg/kg
[5] = male, CD-1, mouse, plasma, ip, 10 mg/kg

Tissue Homogenate Conc ([1]; brain homogenate, 0.5 h, animal 2): 2.17 ng/mL | Tissue Homogenate Conc ([1]; brain homogenate, 0.5 h, animal 3): 3.18 ng/mL | Tissue Homogenate Conc ([1]; brain homogenate, 1 h, animal 1): 1.69 ng/mL | Tissue Homogenate Conc ([1]; brain homogenate, 1 h, animal 2): 1.78 ng/mL | Tissue Homogenate Conc ([1]; brain homogenate, 1 h, animal 3): 2.20 ng/mL | Tissue Homogenate Conc ([1]; brain homogenate, 2 h, animal 1): 1.64 ng/mL | Tissue Homogenate Conc ([1]; brain homogenate, 2 h, animal 2): 1.28 ng/mL | Tissue Homogenate Conc ([1]; brain homogenate, 2 h, animal 3): 1.22 ng/mL | Tissue Homogenate Conc ([1]; brain homogenate, 4 h, animal 1): 1.16 ng/mL | Tissue Homogenate Conc ([1]; brain homogenate, 4 h, animal 2): 1.03 ng/mL | Tissue Homogenate Conc ([1]; brain homogenate, 4 h, animal 3): 1.08 ng/mL | level at 0.5 h [1, 3]: 2.56 ng/mL | level at 1 h [1, 3]: 1.89 ng/mL | level at 2 h [1, 3]: 1.38 ng/mL | level at 4 h [1, 3]: 1.09 ng/mL | tissue level at time at 0.5 h [1, 4]: 10.3 ng/g | tissue level at time at 1 h [1, 4]: 7.56 ng/g | tissue level at time at 2 h [1, 4]: 5.52 ng/g | tissue level at time at 4 h [1, 4]: 4.36 ng/g | level at 0.5 h [1, 5]: 132 ng/mL | level at 1 h [1, 5]: 90.9 ng/mL | level at 2 h [1, 5]: 59.5 ng/mL | level at 4 h [1, 5]: 49 ng/mL | level at 8 h [1, 5]: 27.6 ng/mL | Plasma Conc ([1]; plasma, 0.5 h, animal 1, LC-MS/MS): 144 ng/mL | Plasma Conc ([1]; plasma, 0.5 h, animal 2): 136 ng/mL | Plasma Conc ([1]; plasma, 0.5 h, animal 3): 115 ng/mL | Plasma Conc ([1]; plasma, 1 h, animal 1): 80.1 ng/mL | Plasma Conc ([1]; plasma, 1 h, animal 2): 107 ng/mL | Plasma Conc ([1]; plasma, 1 h, animal 3): 85.7 ng/mL | Plasma Conc ([1]; plasma, 2 h, animal 1): 56.5 ng/mL | Plasma Conc ([1]; plasma, 2 h, animal 2): 67.2 ng/mL | Plasma Conc ([1]; plasma, 2 h, animal 3): 54.8 ng/mL | Plasma Conc ([1]; plasma, 4 h, animal 1): 53.4 ng/mL | Plasma Conc ([1]; plasma, 4 h, animal 2): 42.2 ng/mL | Plasma Conc ([1]; plasma, 4 h, animal 3): 51.3 ng/mL | Plasma Conc ([1]; plasma, 8 h, animal 1): 28.7 ng/mL | Plasma Conc ([1]; plasma, 8 h, animal 2): 30.6 ng/mL | Plasma Conc ([1]; plasma, 8 h, animal 3): 23.6 ng/mL
Substance: RKDVY [TP5, thymopentin, reference compound] [listing 1 of 2 here]

Substance: RKDVY [TP5, thymopentin, reference compound] [listing 2 of 2 here]
Kd [2]: 1.57 µM
